Experimental data from patent US3932664A, “Substituted phenoxyalkyl quaternary ammonium compounds as antiarrhythemic agents” (priority 1974, dated 1976).
Where two headings read alike, the source gives them in different places.

Key:
[1] = system: ouabain-induced ventricular tachycardia in dogs; assay: conversion of ouabain-induced ventricular tachycardia to normal sinus rhythm in anesthetized dogs; format: in vivo, dog; settings: for minimal effective dose: Canis lupus familiaris, iv, read-out: Conversion Dose
Source text: Ventricular tachycardia is produced in dogs in a method similar to the method of Lucchesi and Hardman (J. Pharmacol. Exptl. Therap., 132, 372, 1961) by the administration of ouabain. In such operations, a dog is anesthetized by the intravenous administration of pentobarbital sodium at a dosage rate of 30 milligrams per kilogram. A femoral artery is cannulated with polyethylene tubing for measurements of blood pressure. A femoral vein is similarly cannulated for administration of ouabain and administration of the test compound. Hypodermic needle electrodes are employed for recording electrocardiograms. In such operations, ouabain is administered intravenously by infusion at a constant rate via the cannulated femoral vein. The infusion rate is 35 micrograms of ouabain per kilogram of animal body weight per hour. Within 1 to 1.5 hours following the start of the infusion, a ventricular tachycardia is seen to develop.
After ventricular tachycardia is observed, a test compound is administered intravenously by administration of varying amounts of a composition comprising 50 milligrams of the test compound as a sterile solution in 10 milliliters of water containing 0.9 percent sodium chloride. Each dose is administered slowly over a period of 15 to 30 seconds. The compound is administered at an initial dosage rate of 0.25 milligram of test compound per kilogram of animal body weight. Blood pressure and electrocardiogram are observed for 5 minutes after administration. When a complete conversion from the arrhythmic condition to normal sinus rhythm is not observed within the 5 minute period, a second dose of 0.50 milligram of the test compound per kilogram is administered by a similar procedure and blood pressure and heartbeat are similarly observed for 5 minutes. When complete conversion of the ventricular tachycardia to normal sinus rhythm is not observed, the dosage is increased two-fold every five minutes until complete conversion is obtained. The animal is then observed and the duration of the period of normal cardiac rhythm produced by administration of the test compound is recorded as the duration of antiarrhythmic activity. The termination of the period of normal activity is marked by the reappearance of ventricular tachycardia or fibrillation as indicated by the electrocardiogram observations. The antiarrhythmic dosage of test compound sufficient to bring about a complete conversion of the cuabain-induced tachycardia, and the duration of the period of normal cardiac activity are set out below.
The procedure of Example 26 is repeated, employing the compound of Example 1, [ 2-(4-amino-2,6-dibromophenoxy)-ethyl]-dimethyl(2-methylallyl)ammoniumchloride, as a test compound. In these operations two groups of three dogs each are administered the test compound intravenously at anti-arrhythmic dosage rates of 1 and 2 milligrams per kilogram after ectopic ventricular rhythms have been established by continuous infusion of cuabain.

[2] = blood and heart tissue levels in mice after intravenous and oral administration; format: in vivo; settings: mouse; for concentration at 0.5 h: oral 6 mg/kg, thirty minutes after administration
Description: [2-(4-amino-2,6-dibromophenoxy)ethyl]dimethyl-(allyl)ammonium bromide is administered to mice intravenously and orally. The animals are thereafter sacrificed and blood and heart tissue analyses are carried out to ascertain the concentration of test compound present. In such operations mice intravenously administered the test compound at a rate of 6 milligrams per kilogram are found to have blood levels of 27 micrograms of test compound per milliliter 10 seconds after injection, 2.1 micrograms per milliliter 3 minutes after injection. Analysis of heart tissue indicates a concentration of 5.5 micrograms of test compound per gram of tissue 10 minutes after injection. Similar analyses are carried out with animals administered 6 milligrams of test compound per kilogram orally. Thirty minutes after oral administration, blood and heart levels of 1.1 and 5.1 micrograms, respectively, of test compound per milliliter of blood or gram of heart tissue, respectively, are found.

[3] = dog, intravenous, dose giving complete conversion of ouabain-induced tachycardia to normal sinus rhythm
[4] = dog, intravenous, at conversion dose 1 mg/kg
[5] = dog, intravenous, at conversion dose 2 mg/kg
[6] = dog, intravenous, at conversion dose 0.5 mg/kg

Question: With `CCOC(=O)C[N+](C)(C)CCOc1c(Br)cc(N)cc1Br` [Example 2, [2-(4-amino-2,6-dibromophenoxy)ethyl]dimethyl(ethylcarboxymethyl) ammonium bromide] as the compound, how does the minimal effective dose [1, 3] read?
Answer: 1 mg/kg

Question: And the “Duration (period of normal cardiac rhythm)” value (shortened to “Duration”) [1, 4]?
Answer: 2.6 min

Question: And the “Duration” value [1, 5]?
Answer: 3.5 min

Question: With `C[N+](C)(CCOc1c(Br)cc(N)cc1Br)Cc1ccccc1Cl.[Cl-]` [Example 3, [2-(4-amino-2,6-dibromophenoxy)-ethyl]dimethyl(2-chlorobenzyl)ammonium chloride] as the compound, how does the minimal effective dose [1, 3] read?
Answer: 1 mg/kg

Question: What about the “Duration” value [1, 4] of the same compound?
Answer: 12.5 min

Question: For `C#CC[N+](C)(C)CCOc1c(Br)cc(N)cc1Br.[Br-]` [Example 4, [2-(4-amino-2,6-dibromo-phenoxy)ethyl]dimethyl(2-propynyl)ammonium bromide], which minimal effective dose [1, 3] is on record?
Answer: 0.5 mg/kg

Question: And the “Duration” value [1, 6]?
Answer: 24 min

Question: Which minimal effective dose [1, 3] does the source give for `CC(=O)C[N+](C)(C)CCOc1c(Br)cc(N)cc1Br.[Cl-]` [Example 5, [2-(4-amino-2,6-dibromophenoxy)ethyl]dimethyl(acetonyl)ammonium chloride] here?
Answer: 1 mg/kg

Question: And the “Duration” value [1, 4]?
Answer: 11 min

Question: For `C=CC[N+](C)(C)CCOc1c(Br)cc(N)cc1Br.[Br-]` [Example 6, [2-(4-amino-2,6-dibromophenoxy)ethyl]dimethyl(allyl)ammonium bromide], which minimal effective dose [1, 3] is on record?
Answer: 1 mg/kg

Question: And the “Duration” value [1, 4]?
Answer: 6 min

Question: What about the concentration at 10 s ([2]; blood, intravenous 6 mg/kg, 10 seconds after injection, read-out: blood level) of the same compound?
Answer: 27 µg/mL

Question: What about the concentration at 0.05 h ([2]; blood, intravenous 6 mg/kg, 3 minutes after injection, read-out: blood level) of the same compound?
Answer: 2.1 µg/mL

Question: And the concentration at 0.5 h ([2]; blood, read-out: blood level)?
Answer: 1.1 µg/mL

Question: What about the concentration at 10 min ([2]; heart, intravenous 6 mg/kg, 10 minutes after injection) of the same compound?
Answer: 5500 ng/g

Question: And the concentration at 0.5 h ([2]; heart, read-out: heart level)?
Answer: 5100 ng/g

Question: What does the source list for `C[N+](C)(CCO)CCOc1c(Br)cc(N)cc1Br` [Example 7]?
Answer: minimal effective dose [1, 3]: 1 mg/kg; Duration (period of normal cardiac rhythm) [1, 4]: 25 min

Question: What does the source list for `C[N+](C)(CCOc1c(Br)cc(N)cc1Br)CC(=O)c1ccc(Cl)c(Cl)c1` [Example 8]?
Answer: minimal effective dose [1, 3]: 16 mg/kg; Duration (period of normal cardiac rhythm) ([1]; dog, intravenous, at conversion dose 16 mg/kg): 10 min

Question: Which results are given for `C[N+](C)(CCOc1c(Br)cc(N)cc1Br)CCc1ccccc1` [Example 9]?
Answer: minimal effective dose [1, 3]: 2 mg/kg; Duration (period of normal cardiac rhythm) [1, 5]: 3.5 min

Question: Which results are given for `C[N+](C)(CC=CCl)CCOc1c(Br)cc(N)cc1Br` [Example 10]?
Answer: minimal effective dose [1, 3]: 1 mg/kg; Duration (period of normal cardiac rhythm) [1, 4]: 3 min

Question: For `C[N+](C)(CCOc1c(Br)cc(N)cc1Br)Cc1ccccc1` [Example 11], which minimal effective dose [1, 3] is on record?
Answer: 1 mg/kg

Question: And the “Duration” value [1, 4]?
Answer: 8.5 min

Question: Which minimal effective dose [1, 3] does the source give for `C[N+](C)(CCOc1c(Br)cc(N)cc1Br)Cc1ccc(Cl)cc1` [Example 12] here?
Answer: 1 mg/kg

Question: What about the “Duration” value [1, 4] of the same compound?
Answer: 9.5 min

Question: With `C[N+](C)(CCOc1c(Br)cc(N)cc1Br)Cc1ccc(Cl)cc1Cl` [Example 13] as the compound, how does the minimal effective dose [1, 3] read?
Answer: 0.5 mg/kg

Question: And the “Duration” value [1, 6]?
Answer: 4 min

Question: For `C[N+](C)(CCOc1c(Br)cc(N)cc1Br)Cc1ccc(Cl)c(Cl)c1` [Example 14], which minimal effective dose [1, 3] is on record?
Answer: 2 mg/kg

Question: What about the “Duration” value [1, 5] of the same compound?
Answer: 14 min

Question: Which minimal effective dose [1, 3] does the source give for `C=C(C)C[N+](C)(C)CCOc1c(Cl)cc(N)cc1Cl.[Cl-]` [Example 15, [2-(4-amino-2,6-dichlorophenoxy)ethyl]dimethyl(2-methylallyl)-ammonium chloride] here?
Answer: 0.5 mg/kg

Question: What about the “Duration” value [1, 6] of the same compound?
Answer: 4.5 min

Question: For `C=CC[N+](CC)(CC)CCOc1c(Br)cc(N)cc1Br.[Br-]` [Example 16, [2-(4-amino-2,6-dibromophenoxy)ethyl]diethyl(allyl)ammonium bromide], which minimal effective dose [1, 3] is on record?
Answer: 2 mg/kg

Question: What about the “Duration” value [1, 5] of the same compound?
Answer: 6.5 min

Question: For `C=CC[N+](C)(C)CCCOc1c(Br)cc(N)cc1Br.[Br-]` [Example 17, [3-(4-amino-2,6-dibromophenoxy)propyl]dimethyl(allyl)ammonium bromide], which minimal effective dose [1, 3] is on record?
Answer: 1 mg/kg

Question: What about the “Duration” value [1, 4] of the same compound?
Answer: 6 min

Question: What does the source list for `C[N+](C)(CC#N)CCOc1c(Br)cc(N)cc1Br.O=S(=O)([O-])c1ccccc1` [Example 18, [2-(4-amino-2,6-dibromophenoxy)ethyl]dimethyl(2-nitriloethyl)-ammonium benzenesulfonate]?
Answer: minimal effective dose [1]: 1 mg/kg; Duration (period of normal cardiac rhythm) [1, 4]: 4 min

Question: What does the source list for `C=CC[N+](C)(C)CCOc1c(Br)cc(N)cc1Br.CS(=O)(=O)[O-]` [Example 19, [2-(4-amino-2,6-dibromophenoxy)-ethyl]dimethyl(allyl)ammonium methanesulfonate]?
Answer: minimal effective dose [1, 3]: 1 mg/kg; Duration (period of normal cardiac rhythm) [1, 4]: 17.5 min; Duration (period of normal cardiac rhythm) [1, 5]: 39.0 min

Question: What does the source list for `Nc1cc(Br)c(OCC[N+]23CCC(CC2)CC3)c(Br)c1` [Example 20, [2-(4-amino-2,6-dibromophenoxy)ethyl] quinuclidinium bromide]?
Answer: minimal effective dose [1]: 0.5 mg/kg; Duration (period of normal cardiac rhythm) [1, 6]: 1 min

Question: With `Br.C=CC[N+]1(CCOc2c(Br)cc(N)cc2Br)CCCC1.[Br-]` [Example 21, 1-[2-(4-amino-2,6dibromophenoxy)ethyl]-1-allyl pyrrolidinium bromide hydrobromide] as the compound, how does the minimal effective dose [1, 3] read?
Answer: 2 mg/kg

Question: What about the “Duration” value [1, 5] of the same compound?
Answer: 1.5 min

Question: With `Br.C=CC[N+]1(CCOc2c(Br)cc(N)cc2Br)CCCCC1.[Br-]` [Example 22, 1-[2-(4-amino-2,6-dibromophenoxy)ethyl]-1-allyl piperidinium bromide hydrobromide] as the compound, how does the minimal effective dose [1, 3] read?
Answer: 1 mg/kg

Question: And the “Duration” value [1, 4]?
Answer: 6.5 min

Question: What does the source list for `C=CC[N+]1(CCOc2c(Br)cc(N)cc2Br)CCCCCC1` [Example 23, [2-(4-amino-2,6-dibromophenoxy)ethyl]-1-allylhexahydroazepinium bromide]?
Answer: minimal effective dose [1, 3]: 0.5 mg/kg; Duration (period of normal cardiac rhythm) [1, 6]: 3.3 min; Duration (period of normal cardiac rhythm) [1, 4]: 7.5 min

Question: For `Cc1ccc[n+](CCOc2c(Br)cc(N)cc2Br)c1.[Br-]` [Example 24, 1-[2-(4-amino-2,6-dibromo-phenoxy)ethyl]-3-picolinium bromide], which minimal effective dose [1, 3] is on record?
Answer: 0.5 mg/kg

Question: And the “Duration” value [1, 6]?
Answer: 38 min

Question: With `C=CC[N+](C)(C)CCCCOc1c(Br)cc(N)cc1Br.[Br-]` [Example 25, [4-(4-amino-2,6-dibromophenoxy)-butyl]dimethyl(allyl) ammonium bromide] as the compound, how does the minimal effective dose [1, 3] read?
Answer: 2 mg/kg

Question: What about the “Duration” value [1, 5] of the same compound?
Answer: 26 min
